This note sets out measurements from US12358886B2, “Heterocyclic compounds for use in the treatment of cancer” (Artios Pharma Limited, priority 2019, dated 2025).

The target in one assay is Polθ protein (amino acids 2-2590) (Homo sapiens, UniProt O75417). Briefly: Polθ full length enzyme potency assay (PicoGreen). To be noted: Polθ IC50 (nM), full length N-His, C-term FLAG tagged Polθ, PicoGreen fluorescence, 12 point concentration response.
Chain of Polθ protein (amino acids 2-2590) (O75417 2-2590): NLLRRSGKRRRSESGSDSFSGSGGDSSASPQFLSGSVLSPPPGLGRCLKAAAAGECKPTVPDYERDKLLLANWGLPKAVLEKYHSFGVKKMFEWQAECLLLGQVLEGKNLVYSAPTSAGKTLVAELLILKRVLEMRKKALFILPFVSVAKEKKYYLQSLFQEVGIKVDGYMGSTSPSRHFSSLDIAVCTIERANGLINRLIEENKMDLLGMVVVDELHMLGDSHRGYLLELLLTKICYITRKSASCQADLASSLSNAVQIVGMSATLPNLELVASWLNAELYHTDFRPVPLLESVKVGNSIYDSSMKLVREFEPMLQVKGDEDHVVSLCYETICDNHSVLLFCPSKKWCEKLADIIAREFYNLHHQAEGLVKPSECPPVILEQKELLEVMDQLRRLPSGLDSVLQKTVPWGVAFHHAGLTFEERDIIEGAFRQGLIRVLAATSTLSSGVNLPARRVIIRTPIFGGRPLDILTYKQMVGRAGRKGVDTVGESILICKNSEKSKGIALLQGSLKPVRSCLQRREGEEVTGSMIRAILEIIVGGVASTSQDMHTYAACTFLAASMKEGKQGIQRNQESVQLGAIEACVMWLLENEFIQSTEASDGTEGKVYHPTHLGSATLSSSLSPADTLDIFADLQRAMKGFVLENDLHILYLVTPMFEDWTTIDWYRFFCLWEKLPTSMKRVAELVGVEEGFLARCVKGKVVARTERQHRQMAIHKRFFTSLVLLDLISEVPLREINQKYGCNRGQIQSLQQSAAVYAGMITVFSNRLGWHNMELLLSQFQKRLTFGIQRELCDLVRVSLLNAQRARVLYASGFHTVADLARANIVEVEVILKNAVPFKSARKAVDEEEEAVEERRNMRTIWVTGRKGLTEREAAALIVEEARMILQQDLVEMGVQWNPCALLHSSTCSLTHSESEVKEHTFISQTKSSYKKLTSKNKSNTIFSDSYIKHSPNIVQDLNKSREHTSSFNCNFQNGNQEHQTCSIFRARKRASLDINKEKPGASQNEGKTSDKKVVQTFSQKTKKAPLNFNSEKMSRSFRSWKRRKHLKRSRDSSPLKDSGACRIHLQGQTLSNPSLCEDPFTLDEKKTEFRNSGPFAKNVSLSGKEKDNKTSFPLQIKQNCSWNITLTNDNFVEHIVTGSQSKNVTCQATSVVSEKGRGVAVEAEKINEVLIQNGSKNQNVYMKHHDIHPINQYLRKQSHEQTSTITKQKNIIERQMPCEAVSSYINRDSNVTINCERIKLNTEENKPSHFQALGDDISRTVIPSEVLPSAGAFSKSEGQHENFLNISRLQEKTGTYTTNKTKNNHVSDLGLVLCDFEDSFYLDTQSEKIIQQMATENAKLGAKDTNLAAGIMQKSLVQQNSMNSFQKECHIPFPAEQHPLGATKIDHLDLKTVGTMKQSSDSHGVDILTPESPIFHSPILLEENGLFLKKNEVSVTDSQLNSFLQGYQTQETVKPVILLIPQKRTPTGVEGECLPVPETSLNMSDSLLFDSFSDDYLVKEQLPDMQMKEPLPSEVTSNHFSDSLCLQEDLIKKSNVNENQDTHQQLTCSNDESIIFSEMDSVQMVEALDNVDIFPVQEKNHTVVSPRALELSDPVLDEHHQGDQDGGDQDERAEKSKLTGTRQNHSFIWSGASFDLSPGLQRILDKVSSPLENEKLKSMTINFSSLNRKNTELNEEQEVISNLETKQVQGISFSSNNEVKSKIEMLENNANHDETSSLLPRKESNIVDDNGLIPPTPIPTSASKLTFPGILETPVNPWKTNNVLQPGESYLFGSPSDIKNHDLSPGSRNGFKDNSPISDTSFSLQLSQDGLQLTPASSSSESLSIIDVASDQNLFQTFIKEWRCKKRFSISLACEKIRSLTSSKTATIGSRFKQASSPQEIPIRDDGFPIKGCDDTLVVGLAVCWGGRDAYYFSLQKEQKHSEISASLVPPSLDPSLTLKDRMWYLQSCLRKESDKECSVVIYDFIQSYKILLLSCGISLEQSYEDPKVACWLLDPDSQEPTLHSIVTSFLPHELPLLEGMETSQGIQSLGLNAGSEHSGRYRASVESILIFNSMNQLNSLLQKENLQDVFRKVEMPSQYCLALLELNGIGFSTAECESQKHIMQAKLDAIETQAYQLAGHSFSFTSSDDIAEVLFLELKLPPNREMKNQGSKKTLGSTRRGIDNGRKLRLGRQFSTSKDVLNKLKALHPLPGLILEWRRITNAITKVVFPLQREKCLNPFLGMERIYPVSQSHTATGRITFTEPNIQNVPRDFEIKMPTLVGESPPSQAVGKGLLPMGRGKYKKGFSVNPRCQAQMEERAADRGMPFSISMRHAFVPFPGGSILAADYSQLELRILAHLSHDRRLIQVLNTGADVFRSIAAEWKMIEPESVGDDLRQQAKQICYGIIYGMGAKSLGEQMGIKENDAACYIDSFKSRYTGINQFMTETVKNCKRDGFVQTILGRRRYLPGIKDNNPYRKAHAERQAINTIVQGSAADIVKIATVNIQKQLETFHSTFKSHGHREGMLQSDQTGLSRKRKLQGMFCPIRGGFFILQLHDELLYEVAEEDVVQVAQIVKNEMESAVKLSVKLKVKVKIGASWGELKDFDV
One may read the IC50 as the concentration needed to halve the response being measured. In the case of `CCN(C(=O)[C@@H]1C[C@H](N2CCOC(CO)C2)CN1c1cc(C(F)(F)F)cc(C)n1)c1ccc(F)c(F)c1` (stereo partly drawn) [Example 128, (2S,4S)-N-(3,4-Difluorophenyl)-N-ethyl-4-(2-(hydroxymethyl)morpholino)-1-(6-methyl-4-(trifluoromethyl)pyridin-2-yl)pyrrolidine-2-carboxamide], half-maximal inhibition (IC50) required 42 nM.

For `Cc1cc(C)c(C#N)c(N2C[C@@H](O)C[C@H]2C(=O)N(C)c2ccc(F)c(F)c2)n1` [Example 4, (2S,4S)-1-(3-Cyano-4,6-dimethylpyridin-2-yl)-N-(3,4-difluorophenyl)-4-hydroxy-N-methylpyrrolidine-2-carboxamide], half-maximal inhibition (IC50) required 288 nM.

For `CCN(C(=O)[C@@H]1C[C@H](NC2COC2)CN1c1cc(C(F)(F)F)cc(C)n1)c1ccc(F)c(F)c1` [Example 138, (2S,4S)-N-(3,4-Difluorophenyl)-N-ethyl-1-(6-methyl-4-(trifluoromethyl)pyridin-2-yl)-4-(oxetan-3-ylamino)pyrrolidine-2-carboxamide], inhibition was half-maximal at 165 nM (IC50).

Turning to `Cc1cc(C(F)(F)F)cc(N2C(=O)N(CCN=S(C)(C)=O)C[C@H]2C(=O)N(C)c2ccc(F)c(Cl)c2)n1` [Example 228, (S)—N-(3-Chloro-4-fluorophenyl)-1-(2-((dimethyl(oxo)-16-sulfaneylidene)amino)ethyl)-N-methyl-3-(6-methyl-4-(trifluoromethyl)pyridin-2-yl)-2-oxoimidazolidine-4-carboxamide], the IC50 came to 62 nM.

`CNC(=O)CCN1C[C@@H](C(=O)N(C)c2ccc(F)c(Cl)c2)N(c2cc(C(F)(F)F)cc(C)n2)C1=O` [Example 191, (S)—N-(3-Chloro-4-fluorophenyl)-N-methyl-3-(6-methyl-4-(trifluoromethyl)pyridin-2-yl)-1-(3-(methylamino)-3-oxopropyl)-2-oxoimidazolidine-4-carboxamide] registered an IC50 of 12 nM.

`Cc1cc(C(C)(C)C)cc(N2C(=O)OC[C@H]2C(=O)N(C)c2ccc(F)c(Cl)c2)n1` [Example 123, (S)-3-(4-(tert-Butyl)-6-methylpyridin-2-yl)-N-(3-chloro-4-fluorophenyl)-N-methyl-2-oxooxazolidine-4-carboxamide] returned an IC50 of 36 nM.

In turn, `Cc1cc(C)c(C#N)c(N2C[C@@H](O)C[C@H]2C(=O)N(C)c2cccc(Cl)c2)n1` [Example 13, (2S,4S)-N-(3-Chlorophenyl)-1-(3-cyano-4,6-dimethylpyridin-2-yl)-4-hydroxy-N-methylpyrrolidine-2-carboxamide] displayed a half-inhibitory concentration (IC50) of 180 nM.

`Cc1cc(C(F)(F)F)cc(N2C(=O)N(CC(O)CN3CCOCC3)C[C@H]2C(=O)N(C)c2ccc(F)c(Cl)c2F)n1` (stereo partly drawn) [Example 217, (4S)—N-(3-Chloro-2,4-difluorophenyl)-1-(2-hydroxy-3-morpholinopropyl)-N-methyl-3-(6-methyl-4-(trifluoromethyl)pyridin-2-yl)-2-oxoimidazolidine-4-carboxamide] returned an IC50 of 7 nM.

`Cc1cc(C(F)(F)F)cc(N2C(=O)N(CC3CNC3)C[C@H]2C(=O)N(C)c2ccc(F)c(Cl)c2F)n1` [Example 188, (S)-1-(Azetidin-3-ylmethyl)-N-(3-chloro-2,4-difluorophenyl)-N-methyl-3-(6-methyl-4-(trifluoromethyl)pyridin-2-yl)-2-oxoimidazolidine-4-carboxamide] displayed an IC50 of 18 nM.

Compound `Cc1cc(C(F)(F)F)cc(N2C(=O)N(CC3(CO)COC3)C[C@H]2C(=O)N(C)c2ccc(F)c(Cl)c2F)n1` [Example 186, (S)-N-(3-Chloro-2,4-difluoro-phenyl)-1-((3-(hydroxymethyl)-oxetan-3-yl)methyl)-N-methyl-3-(6-methyl-4-(trifluoromethyl)-pyridin-2-yl)-2-oxoimidazolidine-4-carboxamide] showed a concentration for half-maximal inhibition (IC50) of 9 nM.

`Cc1cc(C)c(C#N)c(N2C[C@@H](O)C[C@H]2C(=O)N(C)c2ccc(F)c(CF)c2)n1` [Example 14, (2S,4S)-1-(3-Cyano-4,6-dimethylpyridin-2-yl)-N-(4-fluoro-3-(fluoromethyl)phenyl)-4-hydroxy-N-methylpyrrolidine-2-carboxamide]: the IC50 was 415 nM.

The compound `CCN(C(=O)[C@@H]1C[C@H](NC2CNC2)CN1c1nc(C)cc(C)c1C#N)c1cccc(C)c1` [Example 51, (2S,4S)-4-(Azetidin-3-ylamino)-1-(3-cyano-4,6-dimethylpyridin-2-yl)-N-ethyl-N-(m-tolyl)pyrrolidine-2-carboxamide] returned a half-maximal inhibitory concentration (IC50) of 1560 nM.

`CCN(C(=O)[C@@H]1C[C@H](N[C@@H]2CN(C(=O)OC(C)(C)C)C[C@H]2O)CN1c1cc(C(F)(F)F)cc(C)n1)c1ccc(F)c(F)c1` (racemic) [Example 135, rac-tert-Butyl (3R,4R)-3-(((3S,5S)-5-((3,4-difluorophenyl)(ethyl)carbamoyl)-1-(6-methyl-4-(trifluoromethyl)-pyridin-2-yl)pyrrolidin-3-yl)amino)-4-hydroxypyrrolidine-1-carboxylate] registered an IC50 of 223 nM.

For `CCN(C(=O)[C@H]1C[C@@H](N(C)C2CCN(C(C)=O)C2)CN1c1nc(C)cc(C)c1C#N)c1cccc(C)c1` (stereo in doubt) [Example 52, (2R,4R)-4-((1-Acetylpyrrolidin-3-yl)(methyl)amino)-1-(3-cyano-4,6-dimethylpyridin-2-yl)-N-ethyl-N-(m-tolyl)pyrrolidine-2-carboxamide], inhibition was half-maximal at 588 nM (IC50).

Take `CCN(C(=O)[C@@H]1C[C@H](NC2CNC(=O)C2)CN1c1cc(C(F)(F)F)cc(C)n1)c1ccc(F)c(F)c1` (stereo partly drawn) [Example 137, (2S,4S)-N-(3,4-Difluorophenyl)-N-ethyl-1-(6-methyl-4-(trifluoromethyl)pyridin-2-yl)-4-((5-oxopyrrolidin-3-yl)amino)pyrrolidine-2-carboxamide]: inhibition was half-maximal at 300 nM (IC50).

Consider `CCN(C(=O)[C@@H]1C[C@H](N(C)[C@@H]2CN(C(=O)OC(C)(C)C)C[C@H]2O)CN1c1cc(C(F)(F)F)cc(C)n1)c1ccc(F)c(F)c1` (racemic) [Example 143, rac-tert-Butyl (3R,4R)-3-(((3S,5S)-5-((3,4-difluorophenyl)(ethyl)carbamoyl)-1-(6-methyl-4-(trifluoromethyl)pyridin-2-yl)pyrrolidin-3-yl)(methyl)amino)-4-hydroxypyrrolidine-1-carboxylate], for which the IC50 stood at 409 nM.

Compound `Cc1cc(C(F)(F)F)c(C#N)c(N2C[C@@H](O)C[C@H]2C(=O)N(C)c2cc(F)cc(F)c2)n1` [Example 17, (2S,4S)-1-(3-Cyano-6-methyl-4-(trifluoromethyl)pyridin-2-yl)-N-(3,5-difluorophenyl)-4-hydroxy-N-methylpyrrolidine-2-carboxamide] yielded an IC50 of 97 nM.

Consider `Cc1cc(C(F)(F)F)c(C#N)c(N2CC[C@@H](O)[C@H]2C(=O)N(C)c2ccc(F)c(Cl)c2)n1` [Example 81, (2S,3R)—N-(3-Chloro-4-fluorophenyl)-1-(3-cyano-6-methyl-4-(trifluoromethyl)pyridin-2-yl)-3-hydroxy-N-methylpyrrolidine-2-carboxamide], for which the half-inhibitory concentration (IC50) turned out to be 8 nM.

For `Cc1cc(C(F)(F)F)cc(N2C(=O)OC[C@H]2C(=O)N(C)c2ccc(Cl)cc2Cl)n1` [Example 171, (S)-N-(2,4-Dichlorophenyl)-N-methyl-3-(6-methyl-4-(trifluoromethyl)pyridin-2-yl)-2-oxooxazolidine-4-carboxamide], inhibition was half-maximal at 68 nM (IC50).

With `Cc1cccc(N(C(=O)[C@@H]2CCCN2c2nc(C)cc(C(F)(F)F)c2C#N)C(C)C)c1` [Example 2, (S)-1-(3-Cyano-6-methyl-4-(trifluoromethyl)pyridin-2-yl)-N-isopropyl-N-(m-tolyl)pyrrolidine-2-carboxamide], half-maximal inhibition (IC50) required 9 nM.

`CCN(C(=O)[C@@H]1C[C@H](N[C@@H]2CCOC[C@H]2O)CN1c1cc(C(F)(F)F)cc(C)n1)c1ccc(F)c(F)c1` [Example 131, (2S,4S)-N-(3,4-Difluorophenyl)-N-ethyl-4-(((3S,4R)-3-hydroxytetrahydro-2H-pyran-4-yl)amino)-1-(6-methyl-4-(trifluoromethyl)pyridin-2-yl)pyrrolidine-2-carboxamide] returned a 50% inhibitory concentration (IC50) of 248 nM.

As to `Cc1cc(C(F)(F)F)c(C#N)c(N2C[C@@H](O)C[C@H]2C(=O)N(C)c2ccccc2)n1` [Example 8, (2S,4S)-1-(3-Cyano-6-methyl-4-(trifluoromethyl)pyridin-2-yl)-4-hydroxy-N-methyl-N-phenylpyrrolidine-2-carboxamide], the midpoint of inhibition, the IC50, lay at 180 nM.

`Cc1cc(C(F)(F)F)cc(N2C(=O)N(CCN3CCC(C#N)CC3)C[C@H]2C(=O)N(C)c2ccc(F)c(Cl)c2F)n1` [Example 211, (S)-N-(3-Chloro-2,4-difluorophenyl)-1-(2-(4-cyanopiperidin-1-yl)ethyl)-N-methyl-3-(6-methyl-4-(trifluoromethyl)pyridin-2-yl)-2-oxoimidazolidine-4-carboxamide]: the half-inhibitory concentration (IC50) turned out to be 5 nM.

On to `Cc1cc(C(F)(F)F)cc(N2C(=O)OC[C@H]2C(=O)N(C)c2cccc(N(C)C)n2)n1` [Example 177, (S)—N-(6-(Dimethylamino)pyridin-2-yl)-N-methyl-3-(6-methyl-4-(trifluoromethyl)pyridin-2-yl)-2-oxooxazolidine-4-carboxamide], for which the IC50 was found to be 109 nM.

For `Cc1cc(C(F)(F)F)cc(N2C(=O)OC[C@H]2C(=O)N(C)c2ccc(Cl)c(F)c2F)n1` [Example 101, (S)-N-(4-Chloro-2,3-difluorophenyl)-N-methyl-3-(6-methyl-4-(trifluoromethyl)pyridin-2-yl)-2-oxooxazolidine-4-carboxamide], the IC50 turned out to be 23 nM.

`Cc1cccc(N(C)C(=O)[C@@H]2CCC(=O)N2c2cc(C(F)(F)F)cc(C)n2)c1` [Example 59, (S)—N-Methyl-1-(6-methyl-4-(trifluoromethyl)pyridin-2-yl)-5-oxo-N-(m-tolyl)pyrrolidine-2-carboxamide]: the IC50 amounted to 7 nM.

The same assay, now with this note: read-out: Polθ IC50; full length N-His, C-term FLAG tagged Polθ, PicoGreen fluorescence, 12 point concentration response.
On to `Cc1cc(C(F)(F)F)cc(N2C(=O)OC[C@H]2C(=O)N(C)c2cc(Cl)ccc2F)n1` [Example 96, (S)-N-(5-Chloro-2-fluorophenyl)-N-methyl-3-(6-methyl-4-(trifluoromethyl)pyridin-2-yl)-2-oxooxazolidine-4-carboxamide], for which the IC50 is 24 nM.
